The test deals with Tubulin (Bos taurus, UniProt Q6B856+Q862L2+Q862F3). Description: In vitro inhibition of purified bovine brain tubulin polymerisation in the absence of microtubule-associated proteins.
Usually IC50 stands for the concentration at which inhibition is half-maximal. Lower therefore signals greater potency. `COc1ccc(Cc2cc(OC)c(OC)c(OC)c2)cc1O` returned an IC50 of 1.5e-06 M.

Turning to `COc1ccc(CCCCc2cc(OC)c(OC)c(OC)c2)cc1O`, the IC50 worked out at 5.8e-06 M.

`COc1ccc(CCCc2cc(OC)c(OC)c(OC)c2)cc1O` came in with an IC50 of 2.4e-06 M.

`COc1ccc(CCc2cc(OC)c(OC)c(OC)c2)cc1O` had an IC50 of 1.4e-06 M.

Compound `COc1cc2c(c(OC)c1OC)C(c1ccc3c(c1)OCO3)CC2` (stereo unspecified) returned an IC50 greater than 0.0002 M.

The compound `COc1cc2c(c(OC)c1OC)C(c1ccc3c(c1)OCO3)CCC2` (stereo unspecified) displayed an IC50 greater than 0.0002 M.

In the case of `COc1cc2c(cc1O)CCCc1cc(OC)c(OC)c(OC)c1-2`, the IC50 was 5.3e-06 M.

`COc1ccc(-c2ccc(OC)c(=O)cc2)c(OC)c1OC`: the IC50 was 7.5e-06 M.

In the case of `COc1cc2c(cc1O)CCc1cc(OC)c(OC)c(OC)c1-2`, the half-maximal inhibitory concentration (IC50) is 0.000104 M.

For the compound `COc1cc2c(cc1O)CCCCc1cc(OC)c(OC)c(OC)c1-2`, the IC50 is greater than 0.000125 M.

`COc1cc(C2CCCc3cc4c(cc32)OCO4)cc(OC)c1OC` (stereo unspecified) displayed a half-inhibitory concentration (IC50) of 2.4e-06 M.

For the compound `COc1ccc(-c2ccc3c(c2)OCO3)c(OC)c1OC`, the IC50 is listed as 0.00015 M.

The compound `COc1cc(-c2ccc(OC)c(OC)c2OC)ccc1O` displayed an IC50 of 0.000098 M.

`COc1ccc(CC(OC(C)=O)c2cc(OC)c(OC)c(OC)c2)cc1O` (stereo unspecified) gave an IC50 of 5e-06 M.

The compound `COc1cc(C2CCc3cc4c(cc32)OCO4)cc(OC)c1OC` (stereo unspecified) yielded an IC50 of 0.000012 M.

As to `COc1cc(Cc2ccc3c(c2)OCO3)cc(OC)c1OC`, the IC50 stood at 0.000067 M.

The values above are taken from ChEMBL document CHEMBL1125985, “Tubulin binding of conformationally restricted bis-aryl compounds” (Bioorg Med Chem Lett, 1991).
